In paper PMC12715762, “Discovery of VU6052254: A Novel, Potent M1 Positive Allosteric Modulator” (ACS Chemical Neuroscience, 2025):

Key:
CYP 2C8 = CYP 2C8 (Homo sapiens, UniProt P10632); experiment: CYP450 inhibition; assay type: in vitro ADME
Phorbol Ester = experiment: Eurofins radioligand binding; settings: Mouse
[1] = IV/PO pharmacokinetics (NHP); assay type: in vivo; settings: NHP (cyno)
Adrenergic β2 = Adrenergic β2 (Homo sapiens, UniProt P07550); experiment: Eurofins radioligand binding
Neuropeptide Y Y1 = Neuropeptide Y Y1 (Homo sapiens, UniProt P25929); experiment: Eurofins radioligand binding
Neuropeptide Y Y1, sequence (P25929 whole entry): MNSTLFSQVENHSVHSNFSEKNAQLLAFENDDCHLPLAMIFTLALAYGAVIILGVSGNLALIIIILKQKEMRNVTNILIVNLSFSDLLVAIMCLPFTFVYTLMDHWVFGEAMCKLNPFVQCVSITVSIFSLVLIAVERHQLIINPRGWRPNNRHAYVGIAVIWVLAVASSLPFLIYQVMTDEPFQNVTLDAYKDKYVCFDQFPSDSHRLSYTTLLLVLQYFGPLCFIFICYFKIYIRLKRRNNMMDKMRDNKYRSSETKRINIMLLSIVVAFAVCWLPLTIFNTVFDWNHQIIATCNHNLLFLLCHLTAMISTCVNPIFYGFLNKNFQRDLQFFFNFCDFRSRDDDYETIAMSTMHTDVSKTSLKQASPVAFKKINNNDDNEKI

4 strain = experiment: AMES assay (4 strain, with and without S9); assay type: cell-based
Histamine H1 = Histamine H1 (Homo sapiens, UniProt P35367); experiment: Eurofins radioligand binding
Muscarinic M2 = Muscarinic M2 (Homo sapiens, UniProt P08172); experiment: Eurofins radioligand binding
Purinergic P2X = experiment: Eurofins radioligand binding; settings: Rat
CYP 2B6 = CYP 2B6 (Homo sapiens, UniProt P20813); experiment: CYP450 inhibition; assay type: in vitro ADME
CYP 2B6, sequence (P20813 whole entry): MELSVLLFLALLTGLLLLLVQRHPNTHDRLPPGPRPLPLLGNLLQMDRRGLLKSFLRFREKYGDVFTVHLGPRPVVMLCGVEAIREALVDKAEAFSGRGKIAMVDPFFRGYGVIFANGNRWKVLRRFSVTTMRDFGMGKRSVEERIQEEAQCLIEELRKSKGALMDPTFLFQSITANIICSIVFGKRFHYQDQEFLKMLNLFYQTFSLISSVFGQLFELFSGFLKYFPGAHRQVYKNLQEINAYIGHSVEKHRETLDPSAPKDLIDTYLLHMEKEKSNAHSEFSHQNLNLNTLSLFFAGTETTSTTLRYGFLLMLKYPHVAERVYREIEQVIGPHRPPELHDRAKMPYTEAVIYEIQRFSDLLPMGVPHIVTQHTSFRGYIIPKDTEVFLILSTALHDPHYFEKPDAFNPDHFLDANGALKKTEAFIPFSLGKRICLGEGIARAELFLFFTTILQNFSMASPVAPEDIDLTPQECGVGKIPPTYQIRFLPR

[2] = biological target: Transporter, Norepinephrine (NET) (Homo sapiens, UniProt P23975); experiment: Eurofins radioligand binding
[3] = plasma protein binding, equilibrium dialysis (dog); assay type: in vitro ADME; settings: pH 7.4, dog (d), read-out: fu,plasma
Description: Plasma protein binding and Brain homogenate binding: Determination of fraction unbound (f u) in plasma was conducted in vitro via equilibrium dialysis using HTDialysis (HTD) membrane plates. The top half of the plate was filled with 100 uL of Dubelco’s Phosphate Buffered Saline, pH 7.4 (DPBS). Compounds were diluted into plasma from each species (5 µM final concentration), which was aliquoted in triplicate to the ‘bottom half’ of the prepared HTD plate wells. The HTD plate was sealed and incubated for 6 hours at 37 °C. Following incubation, each well (both top and bottom halves) were transferred (20 µL) to the corresponding wells of a 96-shallow-well (V-bottom) plate. […]
The unbound fraction (f u) was calculated following the equation below, and mean values for each species were calculated from 3 replicates.
A similar approach was used to determine the degree of brain homogenate binding, which employed the same methodology and procedure with the following modifications: 1) a final compound concentration of 1 μM was used, 2) naïve rat brains were homogenized in DPBS (1:3 composition of brain: DPBS, w/w) using a Mini-Bead Beater™ machine in order to obtain brain homogenate, which was then treated in the same manner as the plasma samples in the previously described plasma protein binding assay. Fraction unbound for both plasma and brain samples was determined using Equation 4. […]

3A4 = experiment: CYP induction repeated at a different CRO (mRNA and protein); assay type: cell-based; settings: result in words
Dopamine D4.2 = Dopamine D4.2 (Homo sapiens, UniProt P21917, DEL265-296); experiment: Eurofins radioligand binding
Dopamine D4.2, sequence (P21917 with tags, fused parts or gaps DEL265-296): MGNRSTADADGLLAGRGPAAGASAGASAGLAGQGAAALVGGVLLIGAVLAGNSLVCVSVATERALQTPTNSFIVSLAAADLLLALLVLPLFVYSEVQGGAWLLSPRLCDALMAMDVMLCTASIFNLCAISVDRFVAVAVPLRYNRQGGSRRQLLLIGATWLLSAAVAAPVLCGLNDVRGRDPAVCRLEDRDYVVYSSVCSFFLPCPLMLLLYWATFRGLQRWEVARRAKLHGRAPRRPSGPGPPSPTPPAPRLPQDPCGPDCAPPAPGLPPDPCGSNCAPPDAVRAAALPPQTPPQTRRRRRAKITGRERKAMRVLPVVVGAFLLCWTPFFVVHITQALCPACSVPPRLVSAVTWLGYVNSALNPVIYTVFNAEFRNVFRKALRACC

[4] = test system: Calcium Channel L-Type, Dihydropyridine; experiment: Eurofins radioligand binding; settings: Rat
M1 KO mice = experiment: Racine seizure assay in M1 KO mice; assay type: in vivo, mouse; settings: result in words
Potassium Channel [KATP] = Potassium Channel [KATP] (Cricetus cricetus, UniProt Q09427); experiment: Eurofins radioligand binding; settings: Hamster
Potassium Channel [KATP], sequence (Q09427 whole entry): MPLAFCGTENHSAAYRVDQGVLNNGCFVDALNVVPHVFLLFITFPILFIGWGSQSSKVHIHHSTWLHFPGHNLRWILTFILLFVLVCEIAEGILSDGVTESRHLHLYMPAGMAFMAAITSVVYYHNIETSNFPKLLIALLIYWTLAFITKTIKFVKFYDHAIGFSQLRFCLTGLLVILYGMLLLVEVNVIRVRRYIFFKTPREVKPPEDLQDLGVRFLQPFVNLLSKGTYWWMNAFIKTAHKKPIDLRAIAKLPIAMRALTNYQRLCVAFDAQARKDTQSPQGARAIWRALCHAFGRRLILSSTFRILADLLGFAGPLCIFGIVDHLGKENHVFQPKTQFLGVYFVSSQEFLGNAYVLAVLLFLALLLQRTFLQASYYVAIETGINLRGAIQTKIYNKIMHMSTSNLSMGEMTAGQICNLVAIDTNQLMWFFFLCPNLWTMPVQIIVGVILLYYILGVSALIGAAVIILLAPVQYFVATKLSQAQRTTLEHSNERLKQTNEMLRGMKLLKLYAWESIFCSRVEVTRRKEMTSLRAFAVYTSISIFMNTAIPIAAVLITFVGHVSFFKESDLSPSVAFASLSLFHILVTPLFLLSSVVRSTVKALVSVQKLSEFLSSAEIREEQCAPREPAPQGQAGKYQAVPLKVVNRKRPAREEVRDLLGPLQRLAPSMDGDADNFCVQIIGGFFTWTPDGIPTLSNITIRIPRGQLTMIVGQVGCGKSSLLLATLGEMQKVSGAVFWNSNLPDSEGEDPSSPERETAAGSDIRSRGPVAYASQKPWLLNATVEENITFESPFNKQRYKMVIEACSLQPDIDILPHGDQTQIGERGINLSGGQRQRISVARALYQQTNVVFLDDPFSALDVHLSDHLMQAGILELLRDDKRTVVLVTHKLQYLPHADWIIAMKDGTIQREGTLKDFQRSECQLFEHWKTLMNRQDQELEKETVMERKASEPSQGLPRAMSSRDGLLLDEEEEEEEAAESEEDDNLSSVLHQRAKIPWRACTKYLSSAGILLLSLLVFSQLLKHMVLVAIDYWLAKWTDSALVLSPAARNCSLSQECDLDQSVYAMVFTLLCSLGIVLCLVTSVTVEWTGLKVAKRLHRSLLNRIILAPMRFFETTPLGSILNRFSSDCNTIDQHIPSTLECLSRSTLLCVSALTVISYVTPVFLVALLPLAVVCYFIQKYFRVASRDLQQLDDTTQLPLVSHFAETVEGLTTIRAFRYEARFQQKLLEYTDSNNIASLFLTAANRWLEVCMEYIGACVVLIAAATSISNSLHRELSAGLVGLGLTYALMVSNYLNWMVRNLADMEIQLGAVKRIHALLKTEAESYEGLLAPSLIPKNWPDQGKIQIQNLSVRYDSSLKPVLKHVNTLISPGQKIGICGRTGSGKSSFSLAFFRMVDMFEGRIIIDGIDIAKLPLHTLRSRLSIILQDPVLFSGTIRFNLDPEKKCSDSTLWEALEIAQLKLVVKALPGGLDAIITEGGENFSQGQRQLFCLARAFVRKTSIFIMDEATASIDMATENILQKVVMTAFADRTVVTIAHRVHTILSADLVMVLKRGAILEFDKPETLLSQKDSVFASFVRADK

Adrenergic β1 = Adrenergic β1 (Homo sapiens, UniProt P08588); experiment: Eurofins radioligand binding
Endothelin ETB = Endothelin ETB (Homo sapiens, UniProt P24530); experiment: Eurofins radioligand binding
Endothelin ETB, sequence (P24530 27-442): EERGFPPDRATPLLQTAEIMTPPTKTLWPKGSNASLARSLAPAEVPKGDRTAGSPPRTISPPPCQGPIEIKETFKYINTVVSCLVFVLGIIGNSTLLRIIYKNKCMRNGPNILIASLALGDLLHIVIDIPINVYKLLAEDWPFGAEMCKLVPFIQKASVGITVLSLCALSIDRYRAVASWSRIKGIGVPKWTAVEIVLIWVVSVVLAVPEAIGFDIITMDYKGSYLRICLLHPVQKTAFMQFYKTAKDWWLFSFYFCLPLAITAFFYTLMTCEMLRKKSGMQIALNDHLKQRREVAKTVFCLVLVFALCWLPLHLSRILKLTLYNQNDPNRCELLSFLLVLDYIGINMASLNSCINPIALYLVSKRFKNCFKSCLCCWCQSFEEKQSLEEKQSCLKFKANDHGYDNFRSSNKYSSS

Muscarinic M3 = Muscarinic M3 (Homo sapiens, UniProt P20309); experiment: Eurofins radioligand binding
Muscarinic M3, sequence (P20309 whole entry): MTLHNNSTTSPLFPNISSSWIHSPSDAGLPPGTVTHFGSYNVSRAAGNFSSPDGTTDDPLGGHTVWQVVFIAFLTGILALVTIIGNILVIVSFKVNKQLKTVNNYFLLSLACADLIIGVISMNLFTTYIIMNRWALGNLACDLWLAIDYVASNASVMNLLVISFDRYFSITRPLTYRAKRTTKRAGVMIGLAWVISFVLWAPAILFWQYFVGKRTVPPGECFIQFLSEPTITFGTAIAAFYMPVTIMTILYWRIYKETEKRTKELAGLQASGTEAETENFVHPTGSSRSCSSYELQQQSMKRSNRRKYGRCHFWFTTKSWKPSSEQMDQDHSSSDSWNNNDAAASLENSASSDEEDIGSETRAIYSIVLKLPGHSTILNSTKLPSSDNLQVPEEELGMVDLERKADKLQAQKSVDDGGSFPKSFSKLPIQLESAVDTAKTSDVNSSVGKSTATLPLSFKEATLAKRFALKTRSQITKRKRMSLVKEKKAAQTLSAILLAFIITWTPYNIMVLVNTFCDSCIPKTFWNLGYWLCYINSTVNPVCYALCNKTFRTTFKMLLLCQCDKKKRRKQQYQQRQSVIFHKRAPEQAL

Adrenergic α1D = Adrenergic α1D (Homo sapiens, UniProt P25100); experiment: Eurofins radioligand binding
CYP 2C19 = CYP 2C19 (Homo sapiens, UniProt P33261); experiment: CYP450 inhibition; assay type: in vitro ADME
CYP 2C19, sequence (P33261 whole entry): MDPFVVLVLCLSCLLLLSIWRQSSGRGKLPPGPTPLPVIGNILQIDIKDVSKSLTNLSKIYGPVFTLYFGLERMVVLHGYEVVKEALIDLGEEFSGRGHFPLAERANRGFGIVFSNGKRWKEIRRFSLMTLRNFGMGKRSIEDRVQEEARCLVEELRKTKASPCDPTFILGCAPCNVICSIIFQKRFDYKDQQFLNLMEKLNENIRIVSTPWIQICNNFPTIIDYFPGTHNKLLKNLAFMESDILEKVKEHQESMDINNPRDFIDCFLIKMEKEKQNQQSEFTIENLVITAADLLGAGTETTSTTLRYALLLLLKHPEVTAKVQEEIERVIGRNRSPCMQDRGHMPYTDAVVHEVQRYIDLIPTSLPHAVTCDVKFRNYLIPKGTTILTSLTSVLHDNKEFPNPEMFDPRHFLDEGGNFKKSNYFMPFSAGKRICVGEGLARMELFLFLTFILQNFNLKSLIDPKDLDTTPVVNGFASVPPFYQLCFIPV

[5] = test system: Glutamate, NMDA, Phencyclidine; experiment: Eurofins radioligand binding; settings: Rat
Androgen (Testosterone) = Androgen (Testosterone) (Homo sapiens, UniProt P10275); experiment: Eurofins radioligand binding
[6] = test system: GABAA, Flunitrazepam, Central; experiment: Eurofins radioligand binding; settings: Rat
[7] = test system: mouse native tissue layer V medial prefrontal cortex (mPFC); experiment: electrophysiology (fEPSP, LTD) in layer V medial prefrontal cortex; settings: 10 μM
Excerpt: Based on our previous experience, ,− , PAM 7 is expected to display robust pro-cognitive efficacy and maintain activity dependence of prefrontal cortical (PFC) function.

[8] = cynomolgus monkey, plasma, 3 mg/kg po

CYP 2C8, sequence (P10632 whole entry): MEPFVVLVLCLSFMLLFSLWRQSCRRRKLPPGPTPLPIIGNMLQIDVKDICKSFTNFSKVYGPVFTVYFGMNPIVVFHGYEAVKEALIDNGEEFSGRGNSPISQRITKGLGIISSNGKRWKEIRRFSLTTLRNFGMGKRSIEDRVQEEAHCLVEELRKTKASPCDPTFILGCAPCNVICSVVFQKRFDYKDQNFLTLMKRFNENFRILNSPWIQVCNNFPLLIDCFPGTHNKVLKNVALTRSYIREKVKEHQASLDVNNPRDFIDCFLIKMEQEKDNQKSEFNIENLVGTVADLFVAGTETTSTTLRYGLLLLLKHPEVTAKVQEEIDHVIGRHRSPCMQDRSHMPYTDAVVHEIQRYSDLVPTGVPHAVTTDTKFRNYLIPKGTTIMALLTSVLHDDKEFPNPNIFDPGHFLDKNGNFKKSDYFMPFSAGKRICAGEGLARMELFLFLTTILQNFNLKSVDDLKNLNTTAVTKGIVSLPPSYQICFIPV

SMILES: Cn1cc2c(-c3cc(F)c(CN4Cc5ncccc5C4=O)c(F)c3)ccc(C(C)(C)O)c2n1 [compound 7]
- IC50 (CYP 2C8): > 30 µM
- % Inhibition at 10 µM (Phorbol Ester): 12%
- F (%) po ([1]; 3 mg/kg po): 76%
- clearance ([1]; cynomolgus monkey, plasma, 1 mg/kg iv, read-out: CLp): 7.3 mL/min/kg
- half-life ([1]; cynomolgus monkey, plasma, 1 mg/kg iv, read-out: Elimination t1/2 (converted)): 4.9 h
- Vd ([1]; cynomolgus monkey, plasma, 1 mg/kg iv, read-out: Vss): 1.5 L/kg
- AUC [1, 8]: 12.4 µM·h
- Cmax [1, 8]: 1100 nM
- Tmax [1, 8]: 4.7 h
- inhibition at 10 µM (Adrenergic β2): -4%
- inhibition at 10 µM (Neuropeptide Y Y1): -10%
- AMES assay result (4 strain): negative
- inhibition at 10 µM (Histamine H1): 4%
- inhibition at 10 µM (Muscarinic M2): 3%
- % Inhibition at 10 µM (Purinergic P2X): 4%
- IC50 (CYP 2B6): > 30 µM
- inhibition at 10 µM [2]: 1%
- fraction unbound at 6 h, 5 µM [3]: 0.117
- 3A4 induction, mRNA and protein (3A4): not to be an inducer of 3A4
- inhibition at 10 µM (Dopamine D4.2): -5%
- % Inhibition at 10 µM [4]: 59%
- Racine-scale effects in M1 KO mice (M1 KO mice): absent
- inhibition at 10 µM (Potassium Channel [KATP]): 11%
- inhibition at 10 µM (Adrenergic β1): 5%
- inhibition at 10 µM (Endothelin ETB): 6%
- inhibition at 10 µM (Muscarinic M3): 7%
- inhibition at 10 µM (Adrenergic α1D): 11%
- IC50 (CYP 2C19): > 30 µM
- % Inhibition at 10 µM [5]: -1%
- inhibition at 10 µM (Androgen (Testosterone)): -4%
- % Inhibition at 10 µM [6]: 4%
- PPR [7]: 112%
- field excitatory postsynaptic potentials (fEPSPs), % baseline [7]: 86 % baseline
